Patent US8283339B2, “Vinyl phosphonate lysophosphatidic acid receptor antagonists” (University of Virginia Patent Foundation, priority 2006, dated 2012)
Read-outs that look alike come from different tables or passages of the source.

Experiments:
[1] = system: LPA inhibition of adenylyl cyclase activation in rat glioma C62B cells; assay: LPA-driven adenylyl cyclase inhibition in rat glioma cells (relief by antagonist); assay type: cell-based; details: isoproterenol-stimulated cAMP accumulation, all in a dose-dependent manner, FIG. 3
Excerpt: FIG. 3 is a graphic representation of LPA-driven adenylyl cyclase inhibition in C6 glioma cells.
Rat glioma C62B cells accumulate cAMP in response to isoproterenol, and this stimulation of adenylyl cyclase is blocked by LPA. As shown, the LPA inhibition of adenylyl cyclase activation is relieved by addition of VPC51299, VPC52172, VPC52173, and VPC52178, all in a dose-dependent manner. Results are illustrated in FIG. 3.

[2] = system: osteo-tropic subclone of the human breast CA line, MDA MB-231; details: athymic (nude) mice injected with MDA MB-231 subclone; as described in Boucharaba et al. (2006); cited from earlier work
[3] = system: Adult male Sprague Dawley rats; assay: Chronic constriction injury (CCI) model of neuropathic pain: thermal hyperalgesia and mechanical allodynia; assay type: in vivo, rat
Excerpt: The chronic constriction injury (CCI) model of neuropathic pain (Bennett and Xie, Pain, 33 p 87-107 (1988)) was used to assess the efficacy of test compound VPC51299 in relieving thermal hyperalgesia and mechanical allodynia. Adult male Sprague Dawley rats were anesthetized and their sciatic nerves exposed at the level of mid-thigh. Four loose ligations of chromic gut suture were placed around the sciatic nerve and the wound was closed. For sham surgeries, the sciatic nerve was mobilized and the wound closed without ligation. The animals' responses to mechanical and thermal stimuli were assessed prior to CCI and at days 1, 3, 5, 7, and 14 after CCI.
Thermal hyperalgesia was measured using a Plantar Test Apparatus (IITC Inc, Woodland Hills, Calif.). Rats were placed on a warmed glass surface, allowed to acclimate, and a thermal stimulus was applied to the plantar surface of the hind paw. Paw withdrawal latency (PWL) is defined as the time from stimulus application to paw withdrawal. Results are illustrated in FIG. 9A.
Mechanical allodynia was measured two ways. First, a size 5.18 Von Frey monofilament (corresponding to 15.0 g.) was applied to the plantar surface of the hind paw (Touch Test Sensory Evaluator Kit from Stoelting Co., Wood Dale, Ill.). The number of paw withdrawals out of 10 three second trials was recorded. Results are illustrated in FIG. 9B. Second, the maximum withdrawal threshold was assessed using an electronic von Frey Anesthesiometer (IITC Inc, Woodland Hills, Calif.). Force was applied to the plantar surface of the hindpaw until the rat withdrew its paw. The maximum force applied to the paw before withdrawal was recorded. Results are illustrated in FIG. 9C.

[4] = system: osteo-tropic subclone of the human breast CA line, MDA MB-231; assay: Lytic bone metastasis in athymic (nude) mice; assay type: in vivo, mouse; details: athymic (nude) mice injected with MDA MB-231 subclone; treated for two weeks; FIG. 13
Protocol: Mice are tested for assessing lytic bone metastasis. Athymic (nude) mice were injected with a osteo-tropic subclone of the human breast CA line, MDA MB-231. After two weeks the bones are scanned to assess the cancer in the bone. The cancer is treated for two weeks and the lesions are imaged. […] 103, pp. 9643-9648. The results are illustrated in FIG. 13.

CCCCCCCC(=O)N[C@@H](/C=C/P(=O)(O)O)Cc1ccc(OCc2cc(OCC(F)(F)F)ccn2)cc1 [VPC52178, (1R)-(3-octanoylamino-4-{4-[4-(2,2,2-trifluoro-ethoxy)-pyridin-2-ylmethoxy]-phenyl}-trans-but-1-enyl)-phosphonic Acid]
relief of LPA inhibition of adenylyl cyclase activation [1]: relieved

CCCCCCCCCCCC(=O)N[C@@H](/C=C/P(=O)(O)O)Cc1ccc(OCc2cc(OCC(F)(F)F)ccn2)cc1 [VPC52172, (3R)-(3-Dodecanoylamino-4-{4-[4-(2,2,2-trifluoro-ethoxy)-pyridin-2-ylmethoxy]-phenyl}-trans-but-1-enyl)-phosphonic Acid]
relief of LPA inhibition of adenylyl cyclase activation [1]: relieved

Cc1noc(-c2ccc(CSCCC(=O)O)cc2)c1NC(=O)OC(C)c1ccccc1Cl (stereo not shown) [Kil6425]
size of lytic bone lesions in treated mice [2]: significantly smaller

CCCCCCCCCC(=O)N[C@@H](/C=C/P(=O)(O)O)Cc1ccc(OCc2cc(OCC(F)(F)F)ccn2)cc1 [VPC52173, (3R)-(3-Decanoylamino-4-{4-[4-(2,2,2-trifluoro-ethoxy)-pyridin-2-ylmethoxy]-phenyl}-trans-but-1-enyl)-phosphonic Acid]
relief of LPA inhibition of adenylyl cyclase activation [1]: relieved

CCCCCCCCCCCCCCCC(=O)N[C@@H](/C=C/P(=O)(O)O)Cc1ccc(OCc2cc(OCC(F)(F)F)ccn2)cc1 [VPC51299, (3R)-(3-Hexadecanoylamino-4-{4-[4-(2,2,2-trifluoro-ethoxy)-pyridin-2-ylmethoxy]-phenyl}-trans-but-1-enyl)-phosphonic Acid]
relief of LPA inhibition of adenylyl cyclase activation [1]: relieved
paw withdrawal latency (thermal stimulus), slower than vehicle treated rats ([3]; day 5, after 5 days of treatment, difference vs vehicle treated rats, Plantar Test): 3.1 s
withdrawal threshold, higher than vehicle treated rats ([3]; day 5, after 5 days of treatment, electronic von Frey Anesthesiometer, difference vs vehicle treated rats): 4.0 g
number of paw withdrawals (out of 10 trials), fewer than vehicle treated rats ([3]; day 5, after 5 days of treatment, size 5.18 Von Frey monofilament (15.0 g), difference vs vehicle treated rats): 3.2 times
efficacy in relieving thermal hyperalgesia and mechanical allodynia associated with CCI ([3]; rats with sciatic nerve ligation (CCI), FIGS. 9A-9C): effective in relieving some of the thermal hyperalgesia and mechanical allodynia
size of lytic bone lesions in treated mice [4]: significantly smaller
